Data on 13 compounds can be found in patent publication US11957759B1, “Rapidly accelerated fibrosarcoma (RAF) degrading compounds and associated methods of use” (Arvinas Operations, Inc., priority 2022, dated 2024).

One test deals with T1, B-RAF V600E (Homo sapiens, UniProt P15056, V600E).
T1 construct: expressed in transfected cells; host or cells: T-Rex 293 cells (Invitrogen #R71007)
Nature of the test: Target protein degradation, assay C: T-Rex 293 cells, HA-BRAF_V600E, 384 well format. It is filed as cell-based. As to conditions: T-Rex 293 HA-BRAF_V600E cells, 24 hours, Examples 83-269; for DC50: Assay C; for Dmax: T-REx-293, Assay C. The method, boiled down: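 T-Rex 293 cells stably expressing doxycycline-induced (1 ng/mL) HA-BRAF V600E were treated 24 h at 37 °C with compound (300 nM–5 pM, 11 points, 0.5% DMSO). HA immunofluorescence was quantified by high-content imaging to give DC50 and Dmax (% of control); nuclei counts versus DMSO gauged toxicity.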

A further test deals with T2, B-RAF G466V (Homo sapiens, UniProt P15056, G466V).
T2 construct: expressed in transfected cells; host or cells: T-Rex 293 cells (Invitrogen #R71007)
The test is described as follows: Target protein degradation, assay D: T-Rex 293 cells, HA-BRAF_G466V, 384 well format. It is filed as cell-based. As to conditions: T-Rex 293 HA-BRAF_G466V cells, 24 hours, Examples 83-269; for DC50: Assay D; for Dmax: T-REx-293, Assay D. The method, boiled down:
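T-Rex 293 cells stably expressing doxycycline-induced (1 ng/mL) HA-BRAF G466V treated 24 h at 37 °C with PROTACs, 11-point 1:3 dilution, 300 nM to 5 pM final, 0.5% DMSO. Fixed cells immunostained for HA and imaged by high-content microscopy; DC50 and Dmax (% of control) derived, toxicity from nuclei counts versus DMSO.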

Each structure is given as a SMILES string.

T1 sequence (P15056 whole entry V600E): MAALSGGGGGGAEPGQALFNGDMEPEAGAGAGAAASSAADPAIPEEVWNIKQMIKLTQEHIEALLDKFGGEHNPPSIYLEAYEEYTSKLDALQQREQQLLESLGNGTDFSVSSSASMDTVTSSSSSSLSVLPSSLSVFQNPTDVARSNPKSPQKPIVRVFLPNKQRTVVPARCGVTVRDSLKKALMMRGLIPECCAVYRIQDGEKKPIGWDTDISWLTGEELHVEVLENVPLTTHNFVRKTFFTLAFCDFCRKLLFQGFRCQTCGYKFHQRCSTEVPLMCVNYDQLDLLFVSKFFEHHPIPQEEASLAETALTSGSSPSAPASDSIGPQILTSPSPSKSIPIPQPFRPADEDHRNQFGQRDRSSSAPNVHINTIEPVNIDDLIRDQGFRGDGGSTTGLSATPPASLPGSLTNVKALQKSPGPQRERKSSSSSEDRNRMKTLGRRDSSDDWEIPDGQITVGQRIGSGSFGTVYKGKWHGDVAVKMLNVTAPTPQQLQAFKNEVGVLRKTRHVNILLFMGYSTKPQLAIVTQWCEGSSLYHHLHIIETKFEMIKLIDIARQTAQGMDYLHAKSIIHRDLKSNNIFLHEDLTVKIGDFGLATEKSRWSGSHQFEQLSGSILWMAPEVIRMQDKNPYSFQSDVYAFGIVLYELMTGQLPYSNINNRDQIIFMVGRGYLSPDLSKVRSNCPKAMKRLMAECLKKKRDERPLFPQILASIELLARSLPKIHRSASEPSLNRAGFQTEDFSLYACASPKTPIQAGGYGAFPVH
T2 sequence (P15056 whole entry G466V): as the sequence (P15056 whole entry V600E) above, with G466V, E600V counted along it

For orientation: DC50 means the midpoint of the concentration-degradation curve. The low end stands for a more potent degrader, the high end for a less potent degrader. As usually defined, the Dmax is the greatest extent of degradation seen. Read a high Dmax as a fuller loss of target. As to `N#Cc1c(NS(=O)(=O)N2CC[C@@H](F)C2)ccc(F)c1Oc1ccc2ncn(-c3ccc(N4CC5(CN(CC6CCN(c7ccc8c(c7)C(=O)N(C7CCC(=O)NC7=O)C8=O)CC6)C5)C4)nc3)c(=O)c2c1` (stereo partly drawn) [Example 172, (3R)-N-{2-cyano-3-[(3-{6-[6-({1-[2-(2,6-dioxopiperidin-3-yl)-1,3-dioxo-2,3-dihydro-1H-isoindol-5-yl]piperidin-4-yl}methyl)-2,6-diazaspiro[3.3]heptan-2-yl]pyridin-3-yl}-4-oxo-3,4-dihydroquinazolin-6-yl)oxy]-4-fluorophenyl}-3-fluoropyrrolidine-1-sulfonamide], on B-RAF V600E, the DC50 fell in the range of 50 to 500 nM and the Dmax is ≤ 35%. At B-RAF G466V, the DC50 was 1 to 10 nM and the Dmax was ≤ 35%.

With `N#Cc1c(NS(=O)(=O)N2CC[C@@H](F)C2)ccc(F)c1Oc1ccc2ncn(-c3ccc(N4CCC(CN5CC6(C5)CN(c5cccc7c5C(=O)N(C5CCC(=O)NC5=O)C7=O)C6)CC4)nc3)c(=O)c2c1` (stereo partly drawn) [Example 173, (3R)-N-{2-cyano-3-[(3-{6-[4-({6-[2-(2,6-dioxopiperidin-3-yl)-1,3-dioxo-2,3-dihydro-1H-isoindol-4-yl]-2,6-diazaspiro[3.3]heptan-2-yl}methyl)piperidin-1-yl]pyridin-3-yl}-4-oxo-3,4-dihydroquinazolin-6-yl)oxy]-4-fluorophenyl}-3-fluoropyrrolidine-1-sulfonamide], at B-RAF V600E, the DC50 was in the range of 50 to 500 nM and the Dmax fell in the range of 35 to 70%. In addition, the DC50 at B-RAF G466V is > 30 nM.

On B-RAF V600E, `N#Cc1c(NS(=O)(=O)N2CC[C@@H](F)C2)ccc(F)c1Oc1ccc2ncn(-c3ccc(N4CC5(CN(CC6CCN(c7cccc8c7C(=O)N(C7CCC(=O)NC7=O)C8=O)CC6)C5)C4)nc3)c(=O)c2c1` (stereo partly drawn) [Example 174, (3R)-N-{2-cyano-3-[(3-{6-[6-({1-[2-(2,6-dioxopiperidin-3-yl)-1,3-dioxo-2,3-dihydro-1H-isoindol-4-yl]piperidin-4-yl}methyl)-2,6-diazaspiro[3.3]heptan-2-yl]pyridin-3-yl}-4-oxo-3,4-dihydroquinazolin-6-yl)oxy]-4-fluorophenyl}-3-fluoropyrrolidine-1-sulfonamide] showed a DC50 of 50 to 500 nM and a Dmax of 35 to 70%. For the same compound, at B-RAF G466V, the DC50 was in the range of 1 to 10 nM and the Dmax was ≤ 35%.

On B-RAF V600E, `N#Cc1c(NS(=O)(=O)N2CC[C@@H](F)C2)ccc(F)c1Oc1ccc2ncn(-c3cnc(N4CCN(CCN5CCN(c6ccc(C7CCC(=O)NC7=O)cc6F)CC5)CC4)nc3)c(=O)c2c1` (stereo partly drawn) [Example 175, (3R)-N-{2-cyano-3-[(3-{2-[4-(2-{4-[4-(2,6-dioxopiperidin-3-yl)-2-fluorophenyl]piperazin-1-yl}ethyl)piperazin-1-yl]pyrimidin-5-yl}-4-oxo-3,4-dihydroquinazolin-6-yl)oxy]-4-fluorophenyl}-3-fluoropyrrolidine-1-sulfonamide] returned a DC50 of 5 to 50 nM and a Dmax of 35 to 70%. On B-RAF G466V, this compound gave a DC50 of 1 to 10 nM and a Dmax of 35 to 70%.

At B-RAF V600E, `N#Cc1c(NS(=O)(=O)N2CC[C@@H](F)C2)ccc(F)c1Oc1ccc2ncn(-c3ccc(N4CCN(CCN5CCC(c6ccc7c(c6)CN(C6CCC(=O)NC6=O)C7=O)CC5)CC4)cc3)c(=O)c2c1` (stereo partly drawn) [Example 176, (3R)—N-{2-cyano-3-[(3-{4-[4-(2-{4-[2-(2,6-dioxopiperidin-3-yl)-1-oxo-2,3-dihydro-1H-isoindol-5-yl]piperidin-1-yl}ethyl)piperazin-1-yl]phenyl}-4-oxo-3,4-dihydroquinazolin-6-yl)oxy]-4-fluorophenyl}-3-fluoropyrrolidine-1-sulfonamide] had a DC50 of 50 to 500 nM and a Dmax of 35 to 70%. Also, at B-RAF G466V, the DC50 is 1 to 10 nM and the Dmax was in the range of 35 to 70%.

Regarding `O=C1CCC(N2Cc3cc(N4CCC(CN5CCN(c6ccc(-n7cnc8ccc(Oc9c(F)ccc(NS(=O)(=O)N%10CC[C@@H](F)C%10)c9F)cc8c7=O)cc6)CC5)CC4)ccc3C2=O)C(=O)N1` (stereo partly drawn) [Example 177, (3R)—N-{3-[(3-{4-[4-({1-[2-(2,6-dioxopiperidin-3-yl)-1-oxo-2,3-dihydro-1H-isoindol-5-yl]piperidin-4-yl}methyl)piperazin-1-yl]phenyl}-4-oxo-3,4-dihydroquinazolin-6-yl)oxy]-2,4-difluorophenyl}-3-fluoropyrrolidine-1-sulfonamide], at B-RAF V600E, the DC50 lay in the range of 5 to 50 nM and the Dmax lay in the range of 35 to 70%. At B-RAF G466V, the DC50 fell in the range of 1 to 10 nM and the Dmax is 35 to 70%.

`N#Cc1c(NS(=O)(=O)N2CC[C@@H](F)C2)ccc(F)c1Oc1ccc2ncn(-c3ccc(N4CCC(OC5CC6(C5)CN(c5ccc7c(c5)CN(C5CCC(=O)NC5=O)C7=O)C6)CC4)cc3)c(=O)c2c1` (stereo partly drawn) [Example 178, (3R)—N-{2-cyano-3-[(3-{4-[4-({2-[2-(2,6-dioxopiperidin-3-yl)-1-oxo-2,3-dihydro-1H-isoindol-5-yl]-2-azaspiro[3.3]heptan-6-yl}oxy)piperidin-1-yl]phenyl}-4-oxo-3,4-dihydroquinazolin-6-yl)oxy]-4-fluorophenyl}-3-fluoropyrrolidine-1-sulfonamide]: on B-RAF V600E, the DC50 is 50 to 500 nM and the Dmax lay within 35 to 70%. Further, at B-RAF G466V, the DC50 was 10 to 30 nM and the Dmax lay within 35 to 70%.

For `N#Cc1c(NS(=O)(=O)N2CC[C@@H](F)C2)ccc(F)c1Oc1ccc2ncn(-c3ccc(N4CCN(CC5CC6(C5)CN(c5ccc7c(c5)CN([C@H]5CCC(=O)NC5=O)C7=O)C6)CC4)cc3)c(=O)c2c1` [Example 179, (3R)—N-(2-cyano-3-{[3-(4-{4-[(2-{2-[(3S)-2,6-dioxopiperidin-3-yl]-1-oxo-2,3-dihydro-1H-isoindol-5-yl}-2-azaspiro[3.3]heptan-6-yl)methyl]piperazin-1-yl}phenyl)-4-oxo-3,4-dihydroquinazolin-6-yl]oxy}-4-fluorophenyl)-3-fluoropyrrolidine-1-sulfonamide], the figures for the DC50 on B-RAF V600E and on B-RAF G466V were 50 to 500 nM and 1 to 10 nM, respectively. Besides, the Dmax at B-RAF V600E and on B-RAF G466V was ≥ 70% in each case.

On B-RAF V600E, `N#Cc1c(NS(=O)(=O)N2CC[C@@H](F)C2)ccc(F)c1Oc1ccc2ncn(C3COC4(CCN(C(=O)CC5(O)CCN(c6ccc7c(c6)CN([C@H]6CCC(=O)NC6=O)C7=O)CC5)CC4)C3)c(=O)c2c1` (stereo partly drawn) [Example 180, (3R)—N-{2-cyano-3-[(3-{8-[2-(1-{2-[(3S)-2,6-dioxopiperidin-3-yl]-1-oxo-2,3-dihydro-1H-isoindol-5-yl}-4-hydroxypiperidin-4-yl)acetyl]-1-oxa-8-azaspiro[4.5]decan-3-yl}-4-oxo-3,4-dihydroquinazolin-6-yl)oxy]-4-fluorophenyl}-3-fluoropyrrolidine-1-sulfonamide] had a DC50 of 50 to 500 nM and a Dmax of 35 to 70%. At B-RAF G466V, the DC50 was > 30 nM and the Dmax fell in the range of 35 to 70%.

In the case of `CCN(C)S(=O)(=O)Nc1ccc(F)c(Oc2ccc3ncn(-c4ccc(N5CCN(CC6CN(c7ccc8c(c7)CN(C7CCC(=O)NC7=O)C8=O)C6)CC5)cc4)c(=O)c3c2)c1C#N` (stereo not shown) [Example 181, 2-[(3-{4-[4-({1-[2-(2,6-dioxopiperidin-3-yl)-1-oxo-2,3-dihydro-1H-isoindol-5-yl]azetidin-3-yl}methyl)piperazin-1-yl]phenyl}-4-oxo-3,4-dihydroquinazolin-6-yl)oxy]-6-{[ethyl(methyl)sulfamoyl]amino}-3-fluorobenzonitrile], the DC50 at B-RAF V600E fell in the range of 50 to 500 nM; at B-RAF G466V, 1 to 10 nM. The figures for the Dmax on B-RAF V600E and at B-RAF G466V were 35 to 70% and ≤ 35%, respectively.

As to `N#Cc1c(NS(=O)(=O)N2CC[C@@H](F)C2)ccc(F)c1Oc1ccc2ncn(-c3ccc(N4CCC(CN5CC6(CC(c7ccc8c(c7)CN(C7CCC(=O)NC7=O)C8=O)C6)C5)CC4)cc3)c(=O)c2c1` (stereo partly drawn) [Example 182, (3R)-N-{2-cyano-3-[(3-(4-[4-({6-[2-(2,6-dioxopiperidin-3-yl)-1-oxo-2,3-dihydro-1H-isoindol-5-yl]-2-azaspiro[3.3]heptan-2-yl}methyl)piperidin-1-yl]phenyl}-4-oxo-3,4-dihydroquinazolin-6-yl)oxy]-4-fluorophenyl}-3-fluoropyrrolidine-1-sulfonamide], the results for the DC50 at B-RAF V600E and on B-RAF G466V were 50 to 500 nM and 1 to 10 nM, respectively. The Dmax was ≤ 35% on B-RAF V600E and 35 to 70% on B-RAF G466V.

For the compound `N#Cc1c(NS(=O)(=O)N2CC[C@@H](F)C2)ccc(F)c1Oc1ccc2ncn(-c3ccc(N4CCC(CN5CC(c6ccc([C@H]7CCC(=O)NC7=O)cc6F)C5)CC4)cc3)c(=O)c2c1` [Example 183, (3R)-N-(2-cyano-3-{[3-(4-{4-[(3-{4-[(3R)-2,6-dioxopiperidin-3-yl]-2-fluorophenyl}azetidin-1-yl)methyl]piperidin-1-yl}phenyl)-4-oxo-3,4-dihydroquinazolin-6-yl]oxy}-4-fluorophenyl)-3-fluoropyrrolidine-1-sulfonamide], the DC50 at B-RAF V600E is 50 to 500 nM; at B-RAF G466V, > 30 nM. Further, at B-RAF V600E, the Dmax lay within 35 to 70%.

`N#Cc1c(NS(=O)(=O)N2CC[C@@H](F)C2)ccc(F)c1Oc1ccc2ncn(-c3ccc(N4CCC(CN5CC(c6ccc([C@@H]7CCC(=O)NC7=O)cc6F)C5)CC4)cc3)c(=O)c2c1` [Example 184, (3R)-N-(2-cyano-3-{[3-(4-{4-[(3-{4-[(3S)-2,6-dioxopiperidin-3-yl]-2-fluorophenyl}azetidin-1-yl)methyl]piperidin-1-yl}phenyl)-4-oxo-3,4-dihydroquinazolin-6-yl]oxy}-4-fluorophenyl)-3-fluoropyrrolidine-1-sulfonamide]: the DC50 at B-RAF V600E is 50 to 500 nM; on B-RAF G466V, > 30 nM. Also, the Dmax on B-RAF V600E was ≤ 35%.
